# Measured values as given in patent US10111929B1, “Growth hormone releasing factor analogs and uses” (EZ IP, LLC, priority 2017, dated 2018).
# Assays:
# Assay type in all cases: in vivo
# [1] = Human clinical trials: radial bone density by ultrasonographic technique; conditions: subjects taking HTA-8 alone (Trial #1)
# Protocol: (§1) Two challenges were being considered at the beginning of the human clinical trial. The first challenge was to document the stand-alone efficacy of HTA-8 as a new growth hormone releasing factor. The second was to determine if HTA-8 could be combined with other common releasing factors to create an even better result. As such, two separate trials were conducted. • Trial #1/HTA-8: Ten individuals ranging in age from 30 to 69 years were given 30 ng of HTA-8 in the form of an aerosolized oral spray before bed, over a 30-32 day period. • Trial #2/HTA-8+: Fifteen individuals ranging in age from 38 to 70 years of age were given an effervescent tablet to take once daily over a 25-36 day period that contained 20 ng of HTA-8 in combination with 1200 mg each of the amino acids lysine and arginine. (Previous published experimentation has shown that the combination of lysine and arginine in the doses used in Trial #2 is an effective GH releasing factor.)
# An increase in bone density decreases the chance of fracture and […]. Bone density is a particularly important issue as the body ages, regardless of sex. During the Clinical Trials, radial bone density was measured using an ultrasonographic technique.
# [2] = Human clinical trials: ultrasound-based body composition analysis and body weight; conditions: all study participants in both clinical trials
# Protocol: as §1
# IGF-1 = assay: Human clinical trials: IGF-1 concentrations in participant blood samples
# Protocol: as §1
# The principal hormone measured in order to establish whether there is an increase in growth hormone secretion is IGF-1. IGF-1 concentrations and total cholesterol levels were determined by collecting participant blood samples at the beginning of the studies and at their conclusion.
# total cholesterol = assay: Human clinical trials: total cholesterol levels in participant blood samples; conditions: majority of clinical trial participants; with or without amino acids; absence of additional measures
# Protocol: as §1
# The principal hormone measured in order to establish whether there is an increase in growth hormone secretion is IGF-1. IGF-1 concentrations and total cholesterol levels were determined by collecting participant blood samples at the beginning of the studies and at their conclusion. […]
substance,measurement,setting,value
H-D-Ala-D-2-Nal-Trp-H is-Trp-D-Phe-Lys-N H2 [HTA-8],average increase in bone density,[1],6.8%
same,change in adipose tissue mass,[2],decrease in adipose tissue mass
same,change in lean muscle mass,[2],increase in lean muscle mass
same,maximum IGF-1 level measured in all clinical trial participants after the study period,"IGF-1; Trial #1: 30 ng HTA-8 oral spray before bed, 30-32 days, person",410 ng/mL
same,GHRF activity (IGF-1 response),"IGF-1; Trial #1: HTA-8 alone, oral spray","bona fide, stand-alone GHRF"
same,"IGF-1 level on average, after (increased to)","IGF-1; Trial #2: effervescent tablet once daily, 20 ng HTA-8 with 1200 mg each lysine and arginine, after 25-36 day period",202 ng/mL
same,"IGF-1 level on average, before (increased from)","IGF-1; Trial #2: effervescent tablet once daily, 20 ng HTA-8 with 1200 mg each lysine and arginine, beginning of study",170 ng/mL
same,change in total cholesterol levels over the study period,total cholesterol,clinically significant decrease
